What was measured:
Assay in all cases: radiometric filter-binding kinase assay, Kinase HotSpot
Settings in all cases: compound 0.5 µM; ATP 10 µM
ACVR1 (human) = ACVR1 (human) (UniProt Q04771)
AKT2 (human) = AKT2 (human) (UniProt P31751)
STK16 (human) = STK16 (human) (UniProt O75716)
EPHA6 (human) = EPHA6 (human) (UniProt Q9UF33)
NEK6 (human) = NEK6 (human) (UniProt Q9HC98)
PDGFRB (human) = PDGFRB (human) (UniProt P09619)
STK4 (human) = STK4 (human) (UniProt Q13043)
PRKCA (human) = PRKCA (human) (UniProt P17252)
SYK (human) = SYK (human) (UniProt P43405)
SGK2 (human) = SGK2 (human) (UniProt Q9HBY8)
ROCK1 (human) = ROCK1 (human) (UniProt Q13464)
IGF1R (human) = IGF1R (human) (UniProt P08069)
TTK (human) = TTK (human) (UniProt P33981)
HIPK2 (human) = HIPK2 (human) (UniProt Q9H2X6)
PTK2 (human) = PTK2 (human) (UniProt Q05397)
Chain of PTK2 (human) (Q05397 whole entry, looked up): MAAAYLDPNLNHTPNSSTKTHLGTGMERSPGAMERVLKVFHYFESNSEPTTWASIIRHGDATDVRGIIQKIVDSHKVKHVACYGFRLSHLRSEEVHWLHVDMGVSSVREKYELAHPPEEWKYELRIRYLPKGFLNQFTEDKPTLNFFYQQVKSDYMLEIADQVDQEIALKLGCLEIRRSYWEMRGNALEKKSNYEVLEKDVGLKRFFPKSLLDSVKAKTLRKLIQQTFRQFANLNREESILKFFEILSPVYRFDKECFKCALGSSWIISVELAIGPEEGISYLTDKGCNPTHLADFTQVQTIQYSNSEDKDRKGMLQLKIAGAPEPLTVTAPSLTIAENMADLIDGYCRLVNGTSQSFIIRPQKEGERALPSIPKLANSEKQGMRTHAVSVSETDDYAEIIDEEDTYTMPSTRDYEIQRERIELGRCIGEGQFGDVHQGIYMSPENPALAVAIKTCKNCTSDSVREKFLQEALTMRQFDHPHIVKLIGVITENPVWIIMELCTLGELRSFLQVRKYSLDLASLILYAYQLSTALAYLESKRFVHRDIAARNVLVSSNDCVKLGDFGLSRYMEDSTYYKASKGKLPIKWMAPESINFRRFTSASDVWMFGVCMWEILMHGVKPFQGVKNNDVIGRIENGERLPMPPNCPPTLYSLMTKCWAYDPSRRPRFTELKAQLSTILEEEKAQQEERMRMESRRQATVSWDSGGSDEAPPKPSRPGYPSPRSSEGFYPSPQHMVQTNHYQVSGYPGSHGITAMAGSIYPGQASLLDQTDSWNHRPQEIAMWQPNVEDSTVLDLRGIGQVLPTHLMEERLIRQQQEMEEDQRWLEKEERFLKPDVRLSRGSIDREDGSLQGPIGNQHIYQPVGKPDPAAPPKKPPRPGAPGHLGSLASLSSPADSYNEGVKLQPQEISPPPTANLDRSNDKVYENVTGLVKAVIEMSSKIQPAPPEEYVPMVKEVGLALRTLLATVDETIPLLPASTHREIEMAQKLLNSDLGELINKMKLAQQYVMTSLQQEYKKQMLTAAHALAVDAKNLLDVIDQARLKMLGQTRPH

MST1R (human) = MST1R (human) (UniProt Q04912)
Chain of MST1R (human) (Q04912 whole entry, looked up): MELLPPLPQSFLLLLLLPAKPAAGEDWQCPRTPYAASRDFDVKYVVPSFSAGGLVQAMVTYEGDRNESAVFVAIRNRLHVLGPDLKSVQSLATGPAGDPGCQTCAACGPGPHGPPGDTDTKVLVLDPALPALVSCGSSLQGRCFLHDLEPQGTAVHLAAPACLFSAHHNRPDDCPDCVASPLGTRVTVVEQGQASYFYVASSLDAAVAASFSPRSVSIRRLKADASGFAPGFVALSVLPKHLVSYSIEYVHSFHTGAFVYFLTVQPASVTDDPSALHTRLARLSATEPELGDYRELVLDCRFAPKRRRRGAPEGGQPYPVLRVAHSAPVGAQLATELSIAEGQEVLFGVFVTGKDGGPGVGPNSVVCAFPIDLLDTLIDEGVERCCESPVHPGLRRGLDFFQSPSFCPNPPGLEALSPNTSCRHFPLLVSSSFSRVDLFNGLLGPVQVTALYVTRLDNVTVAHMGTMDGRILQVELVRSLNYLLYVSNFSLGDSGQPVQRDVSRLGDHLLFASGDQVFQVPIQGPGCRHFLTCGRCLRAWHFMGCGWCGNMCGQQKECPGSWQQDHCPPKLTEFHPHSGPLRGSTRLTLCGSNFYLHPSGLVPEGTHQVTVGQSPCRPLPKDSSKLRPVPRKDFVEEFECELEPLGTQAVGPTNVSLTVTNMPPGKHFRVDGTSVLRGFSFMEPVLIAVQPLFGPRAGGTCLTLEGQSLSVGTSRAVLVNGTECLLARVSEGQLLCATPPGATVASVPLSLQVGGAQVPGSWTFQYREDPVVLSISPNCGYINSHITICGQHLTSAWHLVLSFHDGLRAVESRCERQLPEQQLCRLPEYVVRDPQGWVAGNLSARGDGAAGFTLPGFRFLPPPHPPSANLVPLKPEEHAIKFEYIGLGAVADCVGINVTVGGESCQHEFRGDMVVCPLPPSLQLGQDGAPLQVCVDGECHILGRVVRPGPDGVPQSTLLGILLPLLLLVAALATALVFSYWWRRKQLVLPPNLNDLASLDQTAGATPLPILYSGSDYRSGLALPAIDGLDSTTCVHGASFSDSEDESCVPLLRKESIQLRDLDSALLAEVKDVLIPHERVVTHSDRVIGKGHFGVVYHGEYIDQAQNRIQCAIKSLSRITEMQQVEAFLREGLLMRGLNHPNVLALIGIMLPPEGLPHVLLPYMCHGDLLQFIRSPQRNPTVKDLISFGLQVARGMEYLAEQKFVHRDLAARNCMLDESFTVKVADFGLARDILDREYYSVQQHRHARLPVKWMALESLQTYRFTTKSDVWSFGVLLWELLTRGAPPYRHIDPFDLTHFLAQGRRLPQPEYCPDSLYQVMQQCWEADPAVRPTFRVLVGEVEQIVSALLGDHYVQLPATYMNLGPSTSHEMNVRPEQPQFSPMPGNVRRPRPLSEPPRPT

MAPKAPK2 (human) = MAPKAPK2 (human) (UniProt P49137)
PIM2 (human) = PIM2 (human) (UniProt Q9P1W9)
SIK2 (human) = SIK2 (human) (UniProt Q9H0K1)
KIT (human) = KIT (human) (UniProt P10721)
DYRK1B (human) = DYRK1B (human) (UniProt Q9Y463)
CAMKK2 (human) = CAMKK2 (human) (UniProt Q96RR4)
ABL2 (human) = ABL2 (human) (UniProt P42684)
CLK4 (human) = CLK4 (human) (UniProt Q9HAZ1)
NEK3 (human) = NEK3 (human) (UniProt P51956)
RIPK2 (human) = RIPK2 (human) (UniProt O43353)
CSNK2A1 (human) = CSNK2A1 (human) (UniProt P68400)
FGFR3 (human) = FGFR3 (human) (UniProt P22607)
Chain of FGFR3 (human) (P22607 whole entry, looked up): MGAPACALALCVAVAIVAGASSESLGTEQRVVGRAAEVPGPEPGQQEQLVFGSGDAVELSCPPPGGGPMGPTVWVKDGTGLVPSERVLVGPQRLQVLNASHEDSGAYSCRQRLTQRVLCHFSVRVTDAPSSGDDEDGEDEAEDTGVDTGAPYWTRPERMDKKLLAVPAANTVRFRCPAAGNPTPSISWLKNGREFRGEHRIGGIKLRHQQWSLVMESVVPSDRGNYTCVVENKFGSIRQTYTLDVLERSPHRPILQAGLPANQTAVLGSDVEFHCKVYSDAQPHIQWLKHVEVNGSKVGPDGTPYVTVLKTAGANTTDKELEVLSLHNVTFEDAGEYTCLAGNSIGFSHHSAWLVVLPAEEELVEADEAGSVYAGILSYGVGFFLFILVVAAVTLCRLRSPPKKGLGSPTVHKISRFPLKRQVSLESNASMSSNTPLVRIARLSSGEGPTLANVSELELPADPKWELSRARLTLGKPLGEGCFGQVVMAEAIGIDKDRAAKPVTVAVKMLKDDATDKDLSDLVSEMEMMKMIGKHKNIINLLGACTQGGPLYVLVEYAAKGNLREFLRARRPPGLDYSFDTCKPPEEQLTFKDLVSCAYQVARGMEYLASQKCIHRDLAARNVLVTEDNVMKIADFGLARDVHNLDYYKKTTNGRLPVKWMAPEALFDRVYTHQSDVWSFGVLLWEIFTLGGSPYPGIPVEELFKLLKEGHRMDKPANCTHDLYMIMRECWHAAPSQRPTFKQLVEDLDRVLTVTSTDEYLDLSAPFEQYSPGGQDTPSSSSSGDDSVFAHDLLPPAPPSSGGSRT

MAP4K4 (human) = MAP4K4 (human) (UniProt O95819)
MAP3K7 TAB1 (human) = MAP3K7 TAB1 (human) (UniProt O43318+Q15750)
Chain of MAP3K7 TAB1 (human) (O43318 whole entry, looked up): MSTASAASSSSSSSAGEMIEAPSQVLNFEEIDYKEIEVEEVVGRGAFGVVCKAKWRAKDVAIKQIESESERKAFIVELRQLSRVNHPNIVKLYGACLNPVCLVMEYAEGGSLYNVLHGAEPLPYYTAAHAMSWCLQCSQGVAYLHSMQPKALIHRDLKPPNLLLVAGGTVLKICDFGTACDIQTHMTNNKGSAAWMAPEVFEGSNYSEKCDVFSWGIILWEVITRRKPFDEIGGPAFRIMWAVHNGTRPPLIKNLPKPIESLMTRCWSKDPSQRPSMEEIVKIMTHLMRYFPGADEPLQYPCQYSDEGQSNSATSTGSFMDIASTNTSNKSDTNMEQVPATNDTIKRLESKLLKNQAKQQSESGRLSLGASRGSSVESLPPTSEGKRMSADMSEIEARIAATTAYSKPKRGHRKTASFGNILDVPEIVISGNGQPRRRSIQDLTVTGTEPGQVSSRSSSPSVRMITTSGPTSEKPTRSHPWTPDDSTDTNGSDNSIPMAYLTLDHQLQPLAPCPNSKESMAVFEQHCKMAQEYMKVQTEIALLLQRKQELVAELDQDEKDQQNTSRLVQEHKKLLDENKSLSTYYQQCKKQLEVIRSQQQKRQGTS
Chain of MAP3K7 TAB1 (human) (Q15750 whole entry, looked up): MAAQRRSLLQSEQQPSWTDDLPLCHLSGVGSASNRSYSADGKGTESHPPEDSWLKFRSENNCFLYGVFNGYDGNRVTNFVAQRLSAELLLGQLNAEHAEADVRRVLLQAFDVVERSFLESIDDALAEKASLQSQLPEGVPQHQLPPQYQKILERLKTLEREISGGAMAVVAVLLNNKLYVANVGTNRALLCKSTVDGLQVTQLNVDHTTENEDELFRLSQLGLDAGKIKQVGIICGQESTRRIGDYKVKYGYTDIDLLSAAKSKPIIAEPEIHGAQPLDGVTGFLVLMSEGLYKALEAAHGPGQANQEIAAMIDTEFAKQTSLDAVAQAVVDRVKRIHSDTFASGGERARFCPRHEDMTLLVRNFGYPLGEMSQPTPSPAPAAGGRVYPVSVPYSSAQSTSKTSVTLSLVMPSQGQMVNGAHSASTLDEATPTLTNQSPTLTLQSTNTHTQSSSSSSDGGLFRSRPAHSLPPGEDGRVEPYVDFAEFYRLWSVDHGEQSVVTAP

NUAK2 (human) = NUAK2 (human) (UniProt Q9H093)
OXSR1 (human) = OXSR1 (human) (UniProt O95747)
PBK (human) = PBK (human) (UniProt Q96KB5)
FES (human) = FES (human) (UniProt P07332)
PRKD1 (human) = PRKD1 (human) (UniProt Q15139)
TAOK3 (human) = TAOK3 (human) (UniProt Q9H2K8)
CDK2 CCNA2 (human) = CDK2 CCNA2 (human) (UniProt P24941+P20248)
FGR (human) = FGR (human) (UniProt P09769)
STK24 (human) = STK24 (human) (UniProt Q9Y6E0)
KDR (human) = KDR (human) (UniProt P35968)
[1] = biological target: TYK2 JH1 catalytic (human) (UniProt P29597)
EPHA8 (human) = EPHA8 (human) (UniProt P29322)

Chain of STK4 (human) (Q13043 whole entry, looked up): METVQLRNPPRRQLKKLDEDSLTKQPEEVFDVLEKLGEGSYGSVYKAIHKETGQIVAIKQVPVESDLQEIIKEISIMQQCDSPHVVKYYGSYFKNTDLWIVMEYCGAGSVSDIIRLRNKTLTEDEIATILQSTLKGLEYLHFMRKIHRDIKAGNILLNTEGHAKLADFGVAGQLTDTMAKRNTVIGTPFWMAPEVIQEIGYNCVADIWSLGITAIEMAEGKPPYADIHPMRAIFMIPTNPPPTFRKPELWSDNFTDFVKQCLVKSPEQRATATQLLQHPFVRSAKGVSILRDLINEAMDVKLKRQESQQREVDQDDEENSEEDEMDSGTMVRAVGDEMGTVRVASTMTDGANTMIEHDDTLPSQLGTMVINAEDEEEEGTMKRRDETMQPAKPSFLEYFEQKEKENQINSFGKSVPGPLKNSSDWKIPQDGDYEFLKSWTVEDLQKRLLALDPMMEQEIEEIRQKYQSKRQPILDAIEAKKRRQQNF

## CCC(=O)Nc1ccc2ncnc(Nc3cccc(Br)c3)c2c1
ACVR1 (human)
  residual activity: 93.7%
AKT2 (human)
  residual activity: 102%
STK16 (human)
  residual activity: 99.6%
EPHA6 (human)
  residual activity: 79.5%
NEK6 (human)
  residual activity: 105%
PDGFRB (human)
  residual activity: 98%
STK4 (human)
  residual activity: 97.1%
PRKCA (human)
  residual activity: 96.5%
SYK (human)
  residual activity: 94.3%
SGK2 (human)
  residual activity: 96.2%
ROCK1 (human)
  residual activity: 99.5%
IGF1R (human)
  residual activity: 87.6%
TTK (human)
  residual activity: 113%
HIPK2 (human)
  residual activity: 97%
PTK2 (human)
  residual activity: 99.4%
MST1R (human)
  residual activity: 97.2%
MAPKAPK2 (human)
  residual activity: 87.1%
PIM2 (human)
  residual activity: 90.3%
SIK2 (human)
  residual activity: 98.7%
KIT (human)
  residual activity: 90.4%
DYRK1B (human)
  residual activity: 95.2%
CAMKK2 (human)
  residual activity: 84.3%
ABL2 (human)
  residual activity: 96.6%
CLK4 (human)
  residual activity: 99.4%
NEK3 (human)
  residual activity: 99.6%
RIPK2 (human)
  residual activity: 71.4%
CSNK2A1 (human)
  residual activity: 99%
FGFR3 (human)
  residual activity: 93.2%
MAP4K4 (human)
  residual activity: 91.1%
MAP3K7 TAB1 (human)
  residual activity: 94%
NUAK2 (human)
  residual activity: 77.4%
OXSR1 (human)
  residual activity: 107%
PBK (human)
  residual activity: 96.2%
FES (human)
  residual activity: 102%
PRKD1 (human)
  residual activity: 97.9%
TAOK3 (human)
  residual activity: 89.2%
CDK2 CCNA2 (human)
  residual activity: 95.1%
FGR (human)
  residual activity: 93.2%
STK24 (human)
  residual activity: 102%
KDR (human)
  residual activity: 96.5%
[1]
  residual activity: 90.2%
EPHA8 (human)
  residual activity: 96.6%

## CC(C)N(CCC(=O)c1ccc2ccccc2c1)Cc1ccccc1
ACVR1 (human)
  residual activity: 93.6%
AKT2 (human)
  residual activity: 96.5%
STK16 (human)
  residual activity: 91.6%
EPHA6 (human)
  residual activity: 93.3%
NEK6 (human)
  residual activity: 109%
STK4 (human)
  residual activity: 92.5%
PRKCA (human)
  residual activity: 107%
SYK (human)
  residual activity: 101%
SGK2 (human)
  residual activity: 101%
ROCK1 (human)
  residual activity: 98.6%
IGF1R (human)
  residual activity: 107%
TTK (human)
  residual activity: 96%
HIPK2 (human)
  residual activity: 107%
PTK2 (human)
  residual activity: 96.3%
MST1R (human)
  residual activity: 92.6%
MAPKAPK2 (human)
  residual activity: 99%
PIM2 (human)
  residual activity: 104%
SIK2 (human)
  residual activity: 103%
KIT (human)
  residual activity: 86.5%
DYRK1B (human)
  residual activity: 101%
CAMKK2 (human)
  residual activity: 85.2%
ABL2 (human)
  residual activity: 100%
CLK4 (human)
  residual activity: 91.7%
NEK3 (human)
  residual activity: 101%
RIPK2 (human)
  residual activity: 78.3%
CSNK2A1 (human)
  residual activity: 98.1%
FGFR3 (human)
  residual activity: 99.8%
MAP4K4 (human)
  residual activity: 96.7%
MAP3K7 TAB1 (human)
  residual activity: 95.4%
NUAK2 (human)
  residual activity: 85.4%
OXSR1 (human)
  residual activity: 106%
PBK (human)
  residual activity: 108%
FES (human)
  residual activity: 92.7%
PRKD1 (human)
  residual activity: 98%
TAOK3 (human)
  residual activity: 87.8%
CDK2 CCNA2 (human)
  residual activity: 109%
FGR (human)
  residual activity: 94.2%
STK24 (human)
  residual activity: 96.6%
KDR (human)
  residual activity: 98.9%
[1]
  residual activity: 103%
EPHA8 (human)
  residual activity: 95.9%

## CCOC(=O)c1c(C)[nH]c(/C=C2\C(=O)Nc3ccccc32)c1C
ACVR1 (human)
  residual activity: 99.8%
AKT2 (human)
  residual activity: 87.6%
STK16 (human)
  residual activity: 88.3%
EPHA6 (human)
  residual activity: 80%
NEK6 (human)
  residual activity: 98.1%
PDGFRB (human)
  residual activity: 69.1%
STK4 (human)
  residual activity: 83.4%
SYK (human)
  residual activity: 89.3%
SGK2 (human)
  residual activity: 93.7%
ROCK1 (human)
  residual activity: 99.1%
IGF1R (human)
  residual activity: 79.5%
TTK (human)
  residual activity: 96.6%
PTK2 (human)
  residual activity: 93%
MST1R (human)
  residual activity: 87.5%
MAPKAPK2 (human)
  residual activity: 98.6%
PIM2 (human)
  residual activity: 97.7%
SIK2 (human)
  residual activity: 99.9%
KIT (human)
  residual activity: 46.3%
DYRK1B (human)
  residual activity: 105%
CAMKK2 (human)
  residual activity: 90.8%
ABL2 (human)
  residual activity: 88.5%
CLK4 (human)
  residual activity: 94.3%
NEK3 (human)
  residual activity: 101%
RIPK2 (human)
  residual activity: 88.3%
CSNK2A1 (human)
  residual activity: 114%
FGFR3 (human)
  residual activity: 80.4%
MAP4K4 (human)
  residual activity: 64.5%
MAP3K7 TAB1 (human)
  residual activity: 85.8%
NUAK2 (human)
  residual activity: 128%
OXSR1 (human)
  residual activity: 87.9%
PBK (human)
  residual activity: 85%
FES (human)
  residual activity: 99.3%
PRKD1 (human)
  residual activity: 91.3%
TAOK3 (human)
  residual activity: 87.6%
CDK2 CCNA2 (human)
  residual activity: 94.5%
FGR (human)
  residual activity: 79.3%
STK24 (human)
  residual activity: 82.5%
KDR (human)
  residual activity: 93.2%
[1]
  residual activity: 89.9%
EPHA8 (human)
  residual activity: 88.7%

## COc1cc2ncnc(Nc3cccc(Cl)c3)c2cc1OC
ACVR1 (human)
  residual activity: 108%
AKT2 (human)
  residual activity: 84.1%
STK16 (human)
  residual activity: 101%
EPHA6 (human)
  residual activity: 27.8%
NEK6 (human)
  residual activity: 105%
PDGFRB (human)
  residual activity: 100%
STK4 (human)
  residual activity: 92%
PRKCA (human)
  residual activity: 111%
SYK (human)
  residual activity: 86.9%
SGK2 (human)
  residual activity: 97.8%
ROCK1 (human)
  residual activity: 95.9%
IGF1R (human)
  residual activity: 75.9%
TTK (human)
  residual activity: 108%
HIPK2 (human)
  residual activity: 88.8%
PTK2 (human)
  residual activity: 95.1%
MST1R (human)
  residual activity: 87.8%
MAPKAPK2 (human)
  residual activity: 98%
PIM2 (human)
  residual activity: 104%
SIK2 (human)
  residual activity: 98.7%
KIT (human)
  residual activity: 94%
DYRK1B (human)
  residual activity: 104%
CAMKK2 (human)
  residual activity: 97.5%
ABL2 (human)
  residual activity: 52.6%
CLK4 (human)
  residual activity: 98.2%
NEK3 (human)
  residual activity: 84.3%
RIPK2 (human)
  residual activity: 45.4%
FGFR3 (human)
  residual activity: 88.5%
MAP4K4 (human)
  residual activity: 68.1%
MAP3K7 TAB1 (human)
  residual activity: 96.9%
NUAK2 (human)
  residual activity: 142%
OXSR1 (human)
  residual activity: 92%
PBK (human)
  residual activity: 70.9%
FES (human)
  residual activity: 104%
PRKD1 (human)
  residual activity: 92.3%
TAOK3 (human)
  residual activity: 90.4%
FGR (human)
  residual activity: 75.3%
STK24 (human)
  residual activity: 96.8%
KDR (human)
  residual activity: 74.7%
[1]
  residual activity: 98.1%
EPHA8 (human)
  residual activity: 81.5%

## CCN(CC)CCNC(=O)c1c(C)[nH]c(/C=C2\C(=O)Nc3ccc(F)cc32)c1C
ACVR1 (human)
  residual activity: 121%
STK16 (human)
  residual activity: 55.7%
EPHA6 (human)
  residual activity: 29.5%
NEK6 (human)
  residual activity: 89%
PDGFRB (human)
  residual activity: 17.6%
STK4 (human)
  residual activity: 10.7%
PRKCA (human)
  residual activity: 79.9%
SGK2 (human)
  residual activity: 93.1%
ROCK1 (human)
  residual activity: 99.7%
IGF1R (human)
  residual activity: 62.6%
TTK (human)
  residual activity: 68%
HIPK2 (human)
  residual activity: 41.3%
MST1R (human)
  residual activity: 92%
MAPKAPK2 (human)
  residual activity: 93.2%
PIM2 (human)
  residual activity: 97.2%
SIK2 (human)
  residual activity: 27.8%
KIT (human)
  residual activity: 8.74%
DYRK1B (human)
  residual activity: 60%
CAMKK2 (human)
  residual activity: 65.3%
ABL2 (human)
  residual activity: 61.8%
CLK4 (human)
  residual activity: 26.3%
NEK3 (human)
  residual activity: 91.6%
RIPK2 (human)
  residual activity: 104%
CSNK2A1 (human)
  residual activity: 121%
FGFR3 (human)
  residual activity: 39.7%
MAP4K4 (human)
  residual activity: 12.4%
MAP3K7 TAB1 (human)
  residual activity: 18.6%
NUAK2 (human)
  residual activity: 65%
OXSR1 (human)
  residual activity: 105%
PBK (human)
  residual activity: 106%
PRKD1 (human)
  residual activity: 20%
TAOK3 (human)
  residual activity: 82.9%
FGR (human)
  residual activity: 16.4%
STK24 (human)
  residual activity: 39.7%
[1]
  residual activity: 52.6%
EPHA8 (human)
  residual activity: 92.1%
